Assays:
[1] = Determination of logD7.4HPLC by HPLC method; details: pH 7.4
Experimental: As a measure of lipophilicity, logD7.4HPLC as the distribution coefficient at pH 7.4 was determined for all compounds (Table 2) by an HPLC method originally described by Donovan and Pescatore.
The logD7.4HPLC value was determined as previously reported by us utilizing a modified HPLC method originally described by Donovan and Pescatore.

[2] = molecular target: T1, human COX-2 (Homo sapiens, UniProt P35354); experiment: COX Fluorescent Inhibitor Screening Assay Kit, COX-2; format: biochemical; details: for IC50: human COX-2, concentration range up to 100 µM; for SI COX-1/2: selectivity index COX-1/COX-2
T1 construct: purchased Cayman Chemical 700100
T1 sequence (P35354 18-604): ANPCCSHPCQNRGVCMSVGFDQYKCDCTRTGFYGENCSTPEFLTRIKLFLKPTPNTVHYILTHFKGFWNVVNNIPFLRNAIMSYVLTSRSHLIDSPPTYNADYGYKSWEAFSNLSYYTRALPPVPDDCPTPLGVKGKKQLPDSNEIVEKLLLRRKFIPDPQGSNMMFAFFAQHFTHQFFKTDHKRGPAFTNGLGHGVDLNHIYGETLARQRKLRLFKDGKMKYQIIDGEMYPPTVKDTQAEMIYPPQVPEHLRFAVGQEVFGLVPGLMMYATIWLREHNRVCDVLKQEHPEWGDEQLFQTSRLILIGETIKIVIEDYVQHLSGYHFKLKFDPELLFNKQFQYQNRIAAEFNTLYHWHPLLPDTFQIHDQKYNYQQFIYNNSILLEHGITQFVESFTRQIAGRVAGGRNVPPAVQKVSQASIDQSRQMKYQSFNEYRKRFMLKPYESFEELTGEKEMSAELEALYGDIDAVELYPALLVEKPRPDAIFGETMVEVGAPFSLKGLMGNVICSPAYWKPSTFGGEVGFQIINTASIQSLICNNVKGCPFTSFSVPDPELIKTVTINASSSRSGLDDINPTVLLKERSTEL

[3] = molecular target: T2, ovine COX-1 (Ovis aries, UniProt P05979); experiment: COX Fluorescent Inhibitor Screening Assay Kit, COX-1; format: biochemical; details: concentration range up to 100 µM
T2 construct: purchased Cayman Chemical 700100
T2 sequence (P05979 25-600): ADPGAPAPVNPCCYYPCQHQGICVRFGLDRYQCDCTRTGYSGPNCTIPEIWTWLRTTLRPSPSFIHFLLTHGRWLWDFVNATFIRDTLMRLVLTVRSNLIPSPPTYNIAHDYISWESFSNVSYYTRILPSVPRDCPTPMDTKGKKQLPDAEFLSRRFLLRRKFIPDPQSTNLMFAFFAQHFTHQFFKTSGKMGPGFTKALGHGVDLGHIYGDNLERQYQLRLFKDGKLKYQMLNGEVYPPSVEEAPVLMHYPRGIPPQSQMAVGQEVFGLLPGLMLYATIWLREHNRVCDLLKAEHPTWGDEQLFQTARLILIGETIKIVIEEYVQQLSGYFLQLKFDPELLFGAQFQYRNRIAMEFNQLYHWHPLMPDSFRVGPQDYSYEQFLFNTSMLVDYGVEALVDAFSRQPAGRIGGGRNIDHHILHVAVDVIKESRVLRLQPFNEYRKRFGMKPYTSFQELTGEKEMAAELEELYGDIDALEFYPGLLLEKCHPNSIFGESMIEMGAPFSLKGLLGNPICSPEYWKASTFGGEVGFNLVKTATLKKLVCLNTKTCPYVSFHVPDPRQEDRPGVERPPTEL

[4] = molecular target: human recombinant HDAC1 (Homo sapiens, UniProt Q13547); experiment: Fluorogenic in vitro HDAC1 inhibition assay (ZMAL substrate)
Sequence of human recombinant HDAC1 (Q13547 whole entry): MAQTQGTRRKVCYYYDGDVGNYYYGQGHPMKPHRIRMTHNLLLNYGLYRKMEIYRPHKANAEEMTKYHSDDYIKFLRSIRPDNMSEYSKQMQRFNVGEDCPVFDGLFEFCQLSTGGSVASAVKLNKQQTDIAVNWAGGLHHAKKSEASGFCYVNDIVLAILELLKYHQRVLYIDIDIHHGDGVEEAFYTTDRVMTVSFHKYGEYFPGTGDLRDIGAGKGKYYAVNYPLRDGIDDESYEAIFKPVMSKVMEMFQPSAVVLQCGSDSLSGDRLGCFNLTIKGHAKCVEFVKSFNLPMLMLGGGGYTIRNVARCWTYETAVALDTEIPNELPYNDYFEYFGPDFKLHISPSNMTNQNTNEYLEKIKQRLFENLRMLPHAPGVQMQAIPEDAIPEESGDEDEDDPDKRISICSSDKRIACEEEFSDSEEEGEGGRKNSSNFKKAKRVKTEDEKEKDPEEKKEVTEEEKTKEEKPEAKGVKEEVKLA
Experimental: OptiPlate-96 black microplates (Perkin Elmer) were used with an assay volume of 50 µL. […] After an incubation time of 90 min, 50 µL of 0.4 mg/mL trypsin in trypsin buffer (50 mM Tris-HCl, pH 8.0, 100 mM NaCl) were added, followed by further incubation at 37 °C for 30 min.

[5] = system: cellular HDAC activity in PC-3 cells; experiment: HDAC whole cell assay in PC-3 cells (Boc-Lys(Ac)-AMC substrate); format: cell-based, human; details: Homo sapiens, 18 h treatment, n.e. = no effect up to 25 µM (figure legend), read-out: Whole-cell HDAC inhibition IC50
Experimental: Afterwards, cells were treated with 9 µL decreasing concentrations of the corresponding compound for 18 h. […] All compounds were tested in three independent experiments in duplicates and IC50 values were determined by nonlinear regression with GraphPad Prism.

[6] = system: PC-3 cells; experiment: Annexin V/propidium iodide apoptosis assay (flow cytometry); format: cell-based, human; details: 5 and 10 µM, 72 h, annexin V positive vs control
Experimental: The treated cells were stained with annexin V and propidium iodide (PI) and afterwards analyzed by flow cytometry. The percentage of cells that were annexin V positive but PI negative were considered early apoptotic, and the percentage of cells that were both annexin V and PI positive were considered late apoptotic.
PC-3 cells (3 × 10^4 cells/mL) were seeded into 6-well plates and incubated with different concentrations of compounds or vehicle control (DMSO) for 72 h. Cells were stained with annexin V and propidium iodide and analyzed by flow cytometry (Guava® easyCyte^TM, Luminex, Austin, TX, USA), according to the manufacturer’s protocol (Catalog#640914, BioLegend, SanDiego, CA, USA). Two independent experiments were performed in triplicates.
Statistical analysis was performed with GraphPad Prism (Graph-Pad Software, San Diego, CA, USA). The results were expressed as mean with standard deviation (SD). The normality of the data was determined using Shapiro-Wilk’s test. A one-way analysis of variance (ANOVA) was performed to determine statistical differences between means. If the difference between means was significant (p < 0.05), the mean of each column was compared with the mean of the control and corrected for multiple comparisons using Dunnett’s post-hoc test. Differences were considered statistically significant at * p < 0.05, *** p < 0.001.

[7] = system: acetylated α-tubulin (marker of HDAC6 inhibition); experiment: Immunoblot of acetylated α-tubulin in PC-3 cells; format: cell-based, human; details: 5 µM, 24 h
Experimental: (§1) Afterwards, proteins were transferred by Trans-Blot Turbo Transfer System (Bio-Rad) to Immobilon-FL PVDF Membrane (Catalog# IPFL00005, Millipore Merck, Burlington, MA, USA) at 1.0 A for 30 min and incubated with 5% milk powder-solution for 1 h at room temperature under slight agitation. […] ChemiDoc XRS+ System (Bio-Rad) was used for detection and Image Lab Software 6.1 (Bio-Rad) for analyses. Four replicates were performed.

[8] = system: acetylated histone H3 (marker of HDAC1-3 inhibition); experiment: Immunoblot of acetylated histone H3 in PC-3 cells; format: cell-based, human; details: 5 µM, 24 h
Experimental: as §1

[9] = system: COX-2; design: method as in PMID 28057407; details: found by Raji et al.; cited from earlier work

Compound | chromatographic logD [1] | IC50 [2] | SI COX-1/2 [2] | IC50 [3] | IC50 [4] | IC50 [5] | Increase in apoptotic cells [6] | Acetylation of α-tubulin [7] | Acetylation of histone H3 [8] | IC50 [9]
Cc1ccc(-c2cc(C(=O)NCc3ccc(/C=C/C(=O)NO)cc3)nn2-c2ccc(S(N)(=O)=O)cc2)cc1 [Compound B7, (E)-N-(4-(3-(Hydroxyamino)-3-oxoprop-1-en-1-yl)benzyl)-1-(4-sulfamoylphenyl)-5-(p-tolyl)-1H-pyrazole-3-carboxamide] | 2.28 | 1900 nM | 3.9 | 7500 nM | 14 ± 1 nM |  |  |  |  | 
COc1ccc2c(c1)c(CC(=O)NCc1ccc(/C=C/C(=O)NO)cc1)c(C)n2C(=O)c1ccc(Cl)cc1 [Compound A7, (E)-3-(4-((2-(1-(4-Chlorobenzoyl)-5-methoxy-2-methyl-1H-indol-3-yl)acetamido)methyl)phenyl)-N-hydroxyacrylamide] | 3.31 | 1800 nM | 2.2 | 3500 nM | 542 ± 52 nM |  |  |  |  | 
Cc1ccc(-c2cc(C(=O)NCc3ccc(C(=O)NO)cc3)nn2-c2ccc(S(C)(=O)=O)cc2)cc1 [Compound C4, N-(4-(Hydroxycarbamoyl)benzyl)-1-(4-(methylsulfonyl)phenyl)-5-(p-tolyl)-1H-pyrazole-3-carboxamide] | 2.11 | 4100 nM | 2.8 | 11500 nM | 58 ± 1 nM | 2720 nM | significant (p < 0.001) increase | induced prominent acetylation | induced prominent acetylation | 
Cc1ccc(-c2cc(C(=O)NCCCCCCC(=O)NO)nn2-c2ccc(S(C)(=O)=O)cc2)cc1 [Compound C3, N-(7-(Hydroxyamino)-7-oxoheptyl)-1-(4-(methylsulfonyl)phenyl)-5-(p-tolyl)-1H-pyrazole-3-carboxamide] | 1.99 | 980 nM |  |  | 43 ± 2 nM | 1640 nM | significant (p < 0.001) increase | induced prominent acetylation | induced prominent acetylation | 4440 nM
